Tests used:
JAK1 [1] = molecular target: T1, JAK1 (Homo sapiens (Human), UniProt P23458); experiment: JAK LanthaScreen Kinase Assay (TR-FRET), JAK1 in vitro enzyme assay; assay type: biochemical; settings: 20.0 μM ATP
Method: (§1) The JAK LanthaScreen™ Kinase Assay (Invitrogen) is used to determine the ability of test compounds to inhibit JAK1, JAK2, and JAK3 kinase activity. These are TR-FRET assay formats that use long-lifetime terbium labeled antibody as the donor species and GFP-STAT1 as the acceptor species. Use the TR-FRET ratio to monitor JAK kinase activity where an increase in phosphorylation of the GFP-STAT1 results in an increase in the TR-FRET ratio. Perform the kinase reaction using a 12.5 μl reaction volume in shallow black 384-well Proxiplate®. Add reagents to obtain final reaction conditions of […], 1.76 mM Triton X-100, ATP (20.0 μM for JAK1 and JAK3 or 5 μM for JAK2) enzyme assays, 10.0 mM MgCl2, 1 mM EGTA and 0.01% Brij-35, […] GFP-STAT1, 14 nM JAK1 enzyme for JAK1, 1.0 nM for JAK2 or 2.5 nM for JAK3 enzyme assays, and 4% DMSO and serial dilutions of test compound (diluted 1:3 from 20,000 to 1 nM). Following ATP/GFP-STAT1 addition, centrifuge the assay plates for 1 minute at 1000 revolutions per minute (RPM). Allow the plates to incubate at RT for 60 minutes and then add 12.5 μl of a stopping buffer containing 20 mM EDTA, 2 nM Terbium-anti-phosphorylated Signal Transducers and Activators of Transcription [phosphorylation Tyrosine 701 amino acid] […] Use ACTIVITYBASE® 4.0 to fit the percent inhibition and ten-point compound concentration data to a four-parameter logistic equation.

JAK2 = JAK2 (Homo sapiens (Human), UniProt O60674); experiment: JAK LanthaScreen Kinase Assay (TR-FRET), JAK2 in vitro enzyme assay; assay type: biochemical; settings: 5 μM ATP
Method: as §1

JAK3 = JAK3 (Homo sapiens (Human), UniProt P52333); experiment: JAK LanthaScreen Kinase Assay (TR-FRET), JAK3 in vitro enzyme assay; assay type: biochemical; settings: 20.0 μM ATP
Method: as §1

JAK1 [2] = molecular target: T1, JAK1; experiment: AlphaScreen SureFire p-STAT3-(p-Tyr705)-IL6-TF-1-JAK1 cell-based assay; settings: TF-1 cells, IL6 30 ng/mL, pSTAT3
Method: AlphaScreen SureFire Protocol p-STAT3-(p-Tyr705)-IL6-TF-1-JAK1 Cell-Based Assay
The JAK1 cell based assay described below is used to determine the JAK1 cellular potency of test compounds.
Cell preparation: Starve TF-1 cells in DMEM medium with 0.5% […] and 1× Pen/Strep at 37° C. Plate 100K cells per well in BD 96 well black plates with clear bottoms. Maintain the plates at RT for 30-60 minutes before incubating overnight at 37° C., and 5% CO2. Count cells using Vi-Cell counter, using a cell suspension at […] and plated 100 μL/well in […] Biocoat plates (Catalog #354640).
Test compound preparation and treatment: Prepare compounds at 1:3 serial dilutions in DMSO and further dilute into the medium. Test compounds in a range of 10 point concentrations from 20,000 to 1 nM. Add diluted compound to corresponding cell plates. Incubate the plates at 37° C. for 20 min. Add IL6 solution at the final concentration 30 ng/mL to corresponding cell plates and continue to incubate at 37° C. for 30 min. Remove media and add 50 μL 1× lysis buffer to each well.
pSTAT3 detection: Perform the following steps sequentially: make acceptor mix (activation buffer/reaction buffer/acceptor beads); transfer 4 μL lysate from 96 well plates to 384 well-Proxiplates; add 5 μL acceptor mix to 384 proxiplate plate(s) and seal plates with aluminum seal; shake 1-2 minutes on plate shaker; incubate plate at RT for 2 hr with gentle shaking; make donor mix (donor beads in dilution buffer); add 2 μL donor mix to assay plates; seal plates with aluminum seal; shake 1-2 minutes on plate shaker; incubate at RT for 2 hr with gentle shaking; read plate with Envision; protocol AlphaScreen Surefire 384.

T1 sequence (P23458 whole entry): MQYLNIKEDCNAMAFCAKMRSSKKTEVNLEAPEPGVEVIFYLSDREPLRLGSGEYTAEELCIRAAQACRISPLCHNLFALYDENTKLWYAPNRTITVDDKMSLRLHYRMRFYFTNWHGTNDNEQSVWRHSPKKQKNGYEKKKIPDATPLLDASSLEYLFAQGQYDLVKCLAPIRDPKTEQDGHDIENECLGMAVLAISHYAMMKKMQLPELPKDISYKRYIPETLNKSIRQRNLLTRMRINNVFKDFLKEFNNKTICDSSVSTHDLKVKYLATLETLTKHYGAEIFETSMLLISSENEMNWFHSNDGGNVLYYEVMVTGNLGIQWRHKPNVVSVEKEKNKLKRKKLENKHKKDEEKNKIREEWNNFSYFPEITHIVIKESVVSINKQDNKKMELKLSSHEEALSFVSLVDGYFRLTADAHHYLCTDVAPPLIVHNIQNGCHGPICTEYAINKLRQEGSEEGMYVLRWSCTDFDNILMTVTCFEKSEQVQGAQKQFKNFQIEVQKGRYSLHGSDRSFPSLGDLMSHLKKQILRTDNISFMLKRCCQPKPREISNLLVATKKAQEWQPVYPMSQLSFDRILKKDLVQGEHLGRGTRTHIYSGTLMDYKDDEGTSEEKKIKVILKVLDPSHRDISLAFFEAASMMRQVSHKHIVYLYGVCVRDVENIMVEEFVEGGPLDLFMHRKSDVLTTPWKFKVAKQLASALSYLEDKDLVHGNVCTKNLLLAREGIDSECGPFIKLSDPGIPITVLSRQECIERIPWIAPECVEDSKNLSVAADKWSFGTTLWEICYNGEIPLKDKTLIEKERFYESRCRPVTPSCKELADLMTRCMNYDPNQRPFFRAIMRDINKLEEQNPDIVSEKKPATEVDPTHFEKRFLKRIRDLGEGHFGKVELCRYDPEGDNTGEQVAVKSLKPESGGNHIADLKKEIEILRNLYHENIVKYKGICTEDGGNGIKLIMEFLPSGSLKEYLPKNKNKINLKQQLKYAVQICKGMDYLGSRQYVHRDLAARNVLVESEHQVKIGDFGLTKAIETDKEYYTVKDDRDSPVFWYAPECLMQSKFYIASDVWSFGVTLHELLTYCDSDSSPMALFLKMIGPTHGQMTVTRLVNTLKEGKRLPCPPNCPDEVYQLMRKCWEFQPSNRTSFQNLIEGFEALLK
Chain of JAK3 (P52333 whole entry): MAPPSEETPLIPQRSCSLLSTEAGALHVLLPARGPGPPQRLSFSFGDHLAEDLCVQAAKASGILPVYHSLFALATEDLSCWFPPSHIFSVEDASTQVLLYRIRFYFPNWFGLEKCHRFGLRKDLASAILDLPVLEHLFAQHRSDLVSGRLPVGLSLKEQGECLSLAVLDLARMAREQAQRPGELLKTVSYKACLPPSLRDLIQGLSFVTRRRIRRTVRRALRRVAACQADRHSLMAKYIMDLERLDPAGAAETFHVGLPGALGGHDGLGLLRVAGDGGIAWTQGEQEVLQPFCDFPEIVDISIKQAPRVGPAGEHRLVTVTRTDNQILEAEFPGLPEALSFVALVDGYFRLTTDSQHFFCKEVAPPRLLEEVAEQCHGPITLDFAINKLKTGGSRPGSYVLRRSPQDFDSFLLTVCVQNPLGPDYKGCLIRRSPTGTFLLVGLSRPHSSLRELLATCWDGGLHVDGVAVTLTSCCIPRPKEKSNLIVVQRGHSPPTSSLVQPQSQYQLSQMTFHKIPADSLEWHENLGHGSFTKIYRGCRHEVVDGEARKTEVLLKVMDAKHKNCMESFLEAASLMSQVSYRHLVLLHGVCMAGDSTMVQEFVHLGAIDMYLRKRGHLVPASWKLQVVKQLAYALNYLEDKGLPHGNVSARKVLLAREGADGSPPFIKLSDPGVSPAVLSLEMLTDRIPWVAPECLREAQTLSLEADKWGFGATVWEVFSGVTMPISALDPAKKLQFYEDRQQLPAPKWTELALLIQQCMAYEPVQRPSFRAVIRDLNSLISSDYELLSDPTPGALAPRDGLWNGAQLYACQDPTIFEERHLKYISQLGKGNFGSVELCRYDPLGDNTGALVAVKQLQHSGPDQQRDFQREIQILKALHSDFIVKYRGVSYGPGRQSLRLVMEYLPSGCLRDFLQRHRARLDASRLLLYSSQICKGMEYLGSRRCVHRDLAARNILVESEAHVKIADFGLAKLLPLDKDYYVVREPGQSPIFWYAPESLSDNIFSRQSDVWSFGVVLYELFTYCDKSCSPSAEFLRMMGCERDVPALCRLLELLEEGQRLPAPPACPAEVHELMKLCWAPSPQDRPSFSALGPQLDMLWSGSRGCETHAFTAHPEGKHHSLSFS
Chain of JAK2 (O60674 whole entry): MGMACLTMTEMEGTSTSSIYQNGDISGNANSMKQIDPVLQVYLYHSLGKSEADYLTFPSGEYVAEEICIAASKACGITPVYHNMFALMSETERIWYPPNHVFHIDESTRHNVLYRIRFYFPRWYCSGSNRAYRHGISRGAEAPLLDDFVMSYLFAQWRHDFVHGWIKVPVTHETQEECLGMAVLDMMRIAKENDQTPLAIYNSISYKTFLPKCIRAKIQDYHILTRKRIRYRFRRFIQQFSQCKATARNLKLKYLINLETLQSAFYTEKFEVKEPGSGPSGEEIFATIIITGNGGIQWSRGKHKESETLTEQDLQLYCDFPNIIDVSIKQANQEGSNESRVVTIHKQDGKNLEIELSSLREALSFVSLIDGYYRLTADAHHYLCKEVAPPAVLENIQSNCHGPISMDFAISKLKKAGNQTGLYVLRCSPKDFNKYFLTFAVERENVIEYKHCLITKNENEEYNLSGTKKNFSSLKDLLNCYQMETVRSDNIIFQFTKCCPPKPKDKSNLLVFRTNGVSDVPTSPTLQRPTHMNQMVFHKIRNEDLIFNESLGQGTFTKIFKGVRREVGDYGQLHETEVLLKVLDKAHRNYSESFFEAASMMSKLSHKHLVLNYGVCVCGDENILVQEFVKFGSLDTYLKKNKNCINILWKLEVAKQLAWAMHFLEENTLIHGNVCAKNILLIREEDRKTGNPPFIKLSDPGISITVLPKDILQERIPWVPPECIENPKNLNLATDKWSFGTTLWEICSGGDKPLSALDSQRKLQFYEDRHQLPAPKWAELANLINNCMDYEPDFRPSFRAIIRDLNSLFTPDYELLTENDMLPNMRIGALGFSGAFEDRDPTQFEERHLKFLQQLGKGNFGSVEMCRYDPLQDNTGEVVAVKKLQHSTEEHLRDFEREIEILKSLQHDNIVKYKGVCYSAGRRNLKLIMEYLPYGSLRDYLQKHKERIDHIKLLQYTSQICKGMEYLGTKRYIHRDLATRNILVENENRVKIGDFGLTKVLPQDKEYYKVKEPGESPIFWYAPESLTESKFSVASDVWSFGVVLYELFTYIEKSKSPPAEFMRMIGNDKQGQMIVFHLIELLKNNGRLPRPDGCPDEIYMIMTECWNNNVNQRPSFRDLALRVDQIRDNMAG

Structure (SMILES)	IC50 (JAK1 [1])	IC50 (JAK2)	IC50 (JAK3)	IC50 (JAK1 [2])
COCCCn1nc(Nc2cc(O[C@H]3CC[C@@H](NC[C@@H](O)C(F)(F)F)CC3)cc3c2ncn3C)cc1C [Example 1, (2R)-1,1,1-Trifluoro-3-({cis-4-[(4-{[1-(3-methoxypropyl)-5-methyl-1H-pyrazol-3-yl]amino}-1-methyl-1H-benzimidazol-6-yl)oxy]cyclohexyl}amino)propan-2-ol]	3.25 ± 0.99 nM	1200 ± 550 nM	3720 ± 1300 nM	0.154 ± 0.023 nM
COCCn1nc(Nc2cc(O[C@H]3CC[C@@H](NC[C@@H](O)C(F)(F)F)CC3)cc3c2ncn3C)cc1C [Example 2, (2R)-1,1,1-Trifluoro-3-({cis-4-[(4-{[1-(2-methoxyethyl)-5-methyl-1H-pyrazol-3-yl]amino}-1-methyl-1H-benzimidazol-6-yl)oxy]cyclohexyl}amino)propan-2-ol]	–	–	–	0.275 ± 0.102 nM
